Measured values reported in patent US10421718B2, “EBNA1 inhibitors and their method of use” (priority 2013, dated 2019).
Structures can show the parent of a compound that is named as a salt.

Biological target: T1, His-EBNA1 (DNA binding domain of EBNA1, amino acids 459-607) (Epstein-Barr virus, UniProt P03211)
T1 construct: made in house; host or cells: E. coli
Assay: Inhibition of 5′-biotin-oPL4624 binding to His-EBNA1 using Alpha Screen technology
Conditions: Alpha Screen Activity (IC50, inhibition of 5′-biotin-oPL4624 binding to His-EBNA1), 15 nM His-EBNA1, 0.2 nM bt-oPL4624, 2 hr room temperature
Method: Inhibition of 5′-biotin-oPL4624 binding to His-EBNA1 using Alpha Screen technology: Assays were performed using the DNA binding domain of EBNA1 (amino acids 459-607), which was His-tagged (His-EBNA1) and the self-complementary biotinylated (bt) oligonucleotide with the sequence 5′-bt-[…]-ATGCTACCC-3′ (bt-oPL4624). The protein was expressed in E. coli and purified according to Barwell, et al. (Barwell J A, Bochkarev A, Pfuetzner R A, Tong H, Yang D S, Frappier L, Edwards A M. (1995) Overexpression, purification, and crystallization of the DNA binding and dimerization domains of the Epstein-Barr virus nuclear antigen 1. J Biol Chem. 270: 20556-9.). The bt-oPL4624 oligonucleotide was purchased from Integrated DNA Technologies, Inc (IDT). AlphaScreen donor, acceptor beads and white, opaque 384-well assay plates were purchased from PerkinElmer, Inc.
Assays contained 15 nM His-EBNA1, 0.2 nM bt-oPL4624, 5 μg/mL AlphaScreen streptavidin donor beads and nickel chelate acceptor beads, and a series of concentrations of test compound ranging from 3.2 nM to 100 μM in a total volume of 40 μL assay buffer (25 mM Tris, pH 7.2, 160 mM NaCl, 1 mM MgCl2). His-EBNA1 (30 nM) and bt-oPL4624 (0.4 nM) were preincubated with 10 μg/mL nickel chelate AlphaScreen acceptor bead, or 10 μg/mL streptavidin AlphaScreen donor bead, respectively, for 30 minutes at room temperature in assay buffer. Twenty microliters of His-EBNA1/acceptor bead mix and bt-oPL4624/donor bead mix were transferred to assay plates containing […] of 1:3 serial dilutions of test compounds previously prepared in DMSO at concentrations ranging from 0.32 μM to 10 mM. Nonspecific binding was determined with 5 μg/mL AlphaScreen acceptor bead in the absence of His-EBNA1. After 2 hr incubation at room temperature, the AlphaScreen signal was measured on the Envision plate reader (PerkinElmer, Inc.) at 680 nm excitation and 570 nm emission. Inhibition values at each concentration of test compound were determined by setting 100% equal to raw data values in the absence of EBNA1 and 0% equal to the raw data values in the presence of EBNA1. Nonlinear regression fits of the inhibition values to a one-site dose-response equation were performed using GraphPad Prism.

T1 sequence (P03211 459-607): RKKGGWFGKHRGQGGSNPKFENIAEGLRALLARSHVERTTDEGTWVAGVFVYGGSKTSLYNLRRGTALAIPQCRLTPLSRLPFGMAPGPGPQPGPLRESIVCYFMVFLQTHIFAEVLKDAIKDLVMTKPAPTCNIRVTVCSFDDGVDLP

| Compound | IC50 [µM] |
| --- | --- |
| O=C(O)c1cccc(C#Cc2ccccc2CO)c1F [Entry 88, 2-fluoro-3-{2-[2-(hydroxymethyl)phenyl]ethynyl}benzoic acid] | 1 to 10 |
| O=C(O)c1cccc(C#Cc2cscn2)c1F [Entry 89] | 1 to 10 |
| O=C(O)c1cccc(C#Cc2ccccn2)c1 [Entry 90, 3-[2-(pyridin-2-yl)ethynyl]benzoic acid] | 100 to 1000 |
| O=C(O)c1cccc(C#Cc2cccnc2)c1 [Entry 91, 3-[2-(pyridin-3-yl)ethynyl]benzoic acid] | 1 to 10 |
| O=C(O)c1cccc(C#Cc2ccccc2)c1 [Entry 92, 3-(2-phenylethynyl)benzoic acid] | 10 to 100 |
| O=C(O)c1cccc(C#Cc2ccncc2)c1 [Entry 93, 3-[2-(pyridin-4-yl)ethynyl]benzoic acid] | 1 to 10 |
| COc1ccc(C#Cc2cccc(C(=O)O)c2)cc1 [Entry 94, 3-[2-(4-methoxyphenyl)ethynyl]benzoic acid] | 100 to 1000 |
| CN(C)Cc1ccc(-c2c(C#Cc3ccccc3)cccc2C(=O)O)cc1 [Entry 95, 2-{4-[(dimethylamino)methyl]phenyl}-3-(2-phenylethynyl)benzoic acid trifluoroacetic acid salt] | 1 to 10 |
| O=C(O)c1cccc(C#Cc2ccccc2)c1C1=CCNCC1 [Entry 96, 3-(2-phenylethynyl)-2-(1,2,3,6-tetrahydropyridin-4-yl)benzoic acid trifluoroacetic acid salt] | 1 to 10 |
| O=C(O)c1cccc(C#Cc2ccccc2)c1-c1ccncc1 [Entry 97, 3-(2-phenylethynyl)-2-(pyridin-4-yl)benzoic acid trifluoroacetic acid salt] | 10 to 100 |
| CS(=O)(=O)c1ccc(-c2c(C#Cc3ccccc3)cccc2C(=O)O)cc1 [Entry 98, 2-(4-methanesulfonylphenyl)-3-(2-phenylethynyl)benzoic acid] | 10 to 100 |
| O=C(O)c1cccc(C#Cc2ccccc2)c1-c1cn[nH]c1 [Entry 99, 3-(2-phenylethynyl)-2-(1H-pyrazol-4-yl)benzoic acid] | 1 to 10 |
| O=C(O)c1cccc(C#Cc2ccccc2)c1-c1cncnc1 [Entry 100, 3-(2-phenylethynyl)-2-(pyrimidin-5-yl)benzoic acid] | 100 to 1000 |
| Cn1cc(-c2c(C#Cc3ccccc3)cccc2C(=O)O)cn1 [Entry 101, 2-(1-methyl-1H-pyrazol-4-yl)-3-(2-phenylethynyl)benzoic acid] | 1 to 10 |
| O=C(O)c1cccc(C#Cc2ccccc2)c1N1CCCC1c1ccccc1 (stereo not drawn) [Entry 102, 3-(2-phenylethynyl)-2-(2-phenylpyrrolidin-1-yl)benzoic acid] | 1 to 10 |
| CN(C)C1CCN(c2c(C#Cc3ccccc3)cccc2C(=O)O)C1 (stereo not drawn) [Entry 103, 2-(3-(dimethylamino)pyrrolidin-1-yl)-3-(phenylethynyl)benzoic acid] | 10 to 100 |
| O=C(O)c1cccc(C#Cc2ccccc2)c1N1CCC(C(=O)O)C1 (stereo not drawn) [Entry 104, 1-(2-carboxy-6-(phenylethynyl)phenyl)pyrrolidine-3-carboxylic acid] | 10 to 100 |
| O=C(O)c1cccc(C#Cc2ccccc2)c1N1CC[C@H](O)C1 [Entry 105, (S)-2-(3-hydroxypyrrolidin-1-yl)-3-(phenylethynyl)benzoic acid] | 100 to 1000 |
| O=C(O)c1cccc(C#Cc2ccccc2)c1N1CCCC1 [Entry 106, 3-(phenylethynyl)-2-(pyrrolidin-1-yl)benzoic acid] | 10 to 100 |
| O=C(O)c1cccc(C#Cc2ccccc2)c1N1CCNCC1 [Entry 107, 3-(phenylethynyl)-2-(piperazin-1-yl)benzoic acid] | 10 to 100 |
| O=C(O)c1cccc(C#Cc2ccccc2)c1NCc1ccccc1 [Entry 108, 2-(benzylamino)-3-(phenylethynyl)benzoic acid] | 10 to 100 |
| O=C(O)c1cccc(C#Cc2ccccc2)c1-n1cc(-c2ccccc2)nn1 [Entry 109, 2-(4-phenyl-1H-1,2,3-triazol-1-yl)-3-(2-phenylethynyl)benzoic acid] | 10 to 100 |
| COc1cccc(-c2cn(-c3c(C#Cc4ccccc4)cccc3C(=O)O)nn2)c1 [Entry 110, 2-(4-(3-methoxyphenyl)-1H-1,2,3-triazol-1-yl)-3-(phenylethynyl)benzoic acid] | 10 to 100 |

| Compound | IC50 [µM] |
| --- | --- |
| O=C(O)c1cccc(C#Cc2ccccc2)c1-n1cc(-c2cccnc2)nn1 [Entry 111, 3-(phenylethynyl)-2-(4-(pyridin-3-yl)-1H-1,2,3-triazol-1-yl)benzoic acid] | 10 to 100 |
| O=C(O)c1cccc(C#Cc2ccccc2)c1-n1cc(CCCO)nn1 [Entry 112, 2-(4-(3-hydroxypropyl)-1H-1,2,3-triazol-1-yl)-3-(phenylethynyl)benzoic acid] | 10 to 100 |
| CN(C)S(=O)(=O)NC(=O)c1cccc(C#Cc2ccccc2)c1-n1cccc1 [Entry 113, N-(Dimethylsulfamoyl)-3-(2-phenylethynyl)-2-(1H-pyrrol-1-yl)benzamide] | 1 to 10 |
| CN(C)S(=O)(=O)NC(=O)c1cccc(C#Cc2ccc(F)cc2)c1-n1cccc1 [Entry 114, N-(Dimethylsulfamoyl)-3-[2-(4-fluorophenyl)ethynyl]-2-(1H-pyrrol-1-yl)benzamide] | 1 to 10 |
| O=C(NS(=O)(=O)N1CCOCC1)c1cccc(C#Cc2ccccc2)c1-n1cccc1 [Entry 115, N-(morpholine-4-sulfonyl)-3-(2-phenylethynyl)-2-(1H-pyrrol-1-yl)benzamide] | 100 to 1000 |
| O=C(NS(=O)(=O)N1CCS(=O)(=O)CC1)c1cccc(C#Cc2ccccc2)c1-n1cccc1 [Entry 116] | 10 to 100 |
| CS(=O)(=O)NC(=O)c1cccc(C#Cc2ccc(F)cc2)c1-n1cccc1 [Entry 117, 3-[2-(4-fluorophenyl)ethynyl]-N-methanesulfonyl-2-(1H-pyrrol-1-yl)benzamide] | 10 to 100 |
| NS(=O)(=O)NC(=O)c1cccc(C#Cc2ccccc2)c1-n1cccc1 [Entry 118, 3-(phenylethynyl)-2-(1H-pyrrol-1-yl)-N-sulfamoylbenzamide] | 10 to 100 |
| COc1ccc(-c2c(C#Cc3ccccc3)cccc2C(=O)O)cc1 [Entry 119, 2-(4-methoxyphenyl)-3-(2-phenylethynyl)benzoic acid] | 1 to 10 |
| COc1cccc(-c2c(C#Cc3ccccc3)cccc2C(=O)O)c1 [Entry 120, 2-(3-methoxyphenyl)-3-(2-phenylethynyl)benzoic acid] | 1 to 10 |
| COc1ccccc1-c1c(C#Cc2ccccc2)cccc1C(=O)O [Entry 121, 2-(2-methoxyphenyl)-3-(2-phenylethynyl)benzoic acid] | 10 to 100 |
| O=C(O)c1cccc(C#Cc2ccccc2)c1-c1cnc2ccccc2c1 [Entry 122, 3-(2-phenylethynyl)-2-(quinolin-3-yl)benzoic acid] | 10 to 100 |
| O=C(O)c1cccc(C#Cc2ccccc2)c1C1CC1 [Entry 123, 2-cyclopropyl-3-(2-phenylethynyl)benzoic acid] | 1 to 10 |
| O=C(O)c1cccc(C#Cc2ccccc2)c1-c1ccccc1 [Entry 124, 2-phenyl-3-(2-phenylethynyl)benzoic acid] | 10 to 100 |
| Cc1ccc(-c2c(C#Cc3ccccc3)cccc2C(=O)O)cc1 [Entry 125, 2-(4-methylphenyl)-3-(2-phenylethynyl)benzoic acid] | 1 to 10 |
| COc1ccc(-c2c(C#Cc3ccccc3)cccc2C(=O)O)cn1 [Entry 126, 2-(6-methoxypyridin-3-yl)-3-(2-phenylethynyl)benzoic acid] | 10 to 100 |
| CN(C)c1ccc(-c2c(C#Cc3ccccc3)cccc2C(=O)O)cn1 [Entry 127, 2-[6-(dimethylamino)pyridin-3-yl]-3-(2-phenylethynyl)benzoic acid] | 10 to 100 |
| O=C(O)c1cccc(C#Cc2ccccc2)c1-c1cccc(CO)c1 [Entry 128, 2-[3-(hydroxymethyl)phenyl]-3-(2-phenylethynyl)benzoic acid] | 10 to 100 |
| O=C(O)c1cccc(C#Cc2ccccc2)c1-c1ccc2cc[nH]c2c1 [Entry 129, 2-(1H-indol-6-yl)-3-(2-phenylethynyl)benzoic acid] | < 1 |
| O=C(O)c1cccc(C#Cc2ccccc2)c1-c1ccc(CO)cc1 [Entry 130, 2-[4-(hydroxymethyl)phenyl]-3-(2-phenylethynyl)benzoic acid] | 10 to 100 |
| O=C(O)c1cccc(C#Cc2ccccc2)c1-c1ccc2occc2c1 [Entry 131, 2-(1-benzofuran-5-yl)-3-(2-phenylethynyl)benzoic acid] | 10 to 100 |
| O=C(O)c1cccc(C#Cc2ccccc2)c1-c1ccc2sccc2c1 [Entry 132, 2-(1-benzothiophen-5-yl)-3-(2-phenylethynyl)benzoic acid] | 10 to 100 |
